Test: xn = mol fraction of the nth substance listed, in the solute-free solvent

COC(=O)Nc1nc2ccccc2[nH]1 + CO + O
solubility (g/100 g solution)
Settings | 278.15 K | 283.15 K | 288.15 K | 293.15 K | 298.15 K | 303.15 K | 308.15 K | 313.15 K | 318.15 K
x2 = 0.05887 | 0.00186 | 0.00222 | 0.00268 | 0.00321 | 0.00385 | 0.00444 | 0.00519 | 0.00603 | 0.00702
x2 = 0.1235 | 0.00537 | 0.00636 | 0.00764 | 0.00907 | 0.0107 | 0.0124 | 0.0144 | 0.0166 | 0.0191
x2 = 0.1941 | 0.00989 | 0.0117 | 0.0141 | 0.0168 | 0.0198 | 0.0228 | 0.0265 | 0.0306 | 0.0353
x2 = 0.2725 | 0.0136 | 0.0162 | 0.0196 | 0.0233 | 0.0275 | 0.032 | 0.0372 | 0.0432 | 0.0499
x2 = 0.36 | 0.0154 | 0.0185 | 0.0226 | 0.0279 | 0.0321 | 0.0378 | 0.0443 | 0.0516 | 0.06
x2 = 0.4579 | 0.0159 | 0.0192 | 0.0239 | 0.0289 | 0.0343 | 0.0409 | 0.0482 | 0.0567 | 0.0663
x2 = 0.5666 | 0.016 | 0.0196 | 0.0245 | 0.03 | 0.0357 | 0.0432 | 0.0513 | 0.0609 | 0.0717
x2 = 0.6924 | 0.0163 | 0.0203 | 0.0258 | 0.0316 | 0.0381 | 0.0463 | 0.0557 | 0.0664 | 0.0791
x2 = 0.8362 | 0.0175 | 0.0219 | 0.0281 | 0.0347 | 0.0418 | 0.0516 | 0.0624 | 0.075 | 0.0897

NC(N)=C([N+](=O)[O-])[N+](=O)[O-] + CS(C)=O + CC(=O)CC(C)C
solubility (g/100 g solution)
Settings | 293.15 K | 298.15 K | 303.15 K | 308.15 K | 313.15 K | 318.15 K | 323.15 K | 328.15 K | 333.15 K
x2 = 0.1634 | 1.9 | 1.97 | 2.1 | 2.25 | 2.41 | 2.57 | 2.74 | 2.92 | 3.13
x2 = 0.3054 | 5.11 | 5.4 | 5.7 | 5.99 | 6.28 | 6.6 | 6.95 | 7.29 | 7.68
x2 = 0.4297 | 9.16 | 9.64 | 10 | 10.4 | 10.8 | 11.2 | 11.7 | 12.2 | 12.7
x2 = 0.5397 | 13.1 | 13.7 | 14.2 | 14.6 | 15.1 | 15.6 | 16.1 | 16.7 | 17.2
x2 = 0.6375 | 17 | 17.6 | 18.1 | 18.6 | 19 | 19.6 | 20.1 | 20.7 | 21.3
x2 = 0.7251 | 20.2 | 21 | 21.5 | 21.9 | 22.5 | 23.1 | 23.7 | 24.3 | 25
x2 = 0.804 | 23.2 | 23.8 | 24.3 | 24.8 | 25.3 | 25.9 | 26.6 | 27.2 | 27.8
x2 = 0.8755 | 25.6 | 26.3 | 26.8 | 27.2 | 27.8 | 28.4 | 28.9 | 29.6 | 30.2
x2 = 0.9406 | 27.4 | 28.5 | 29 | 29.5 | 30.1 | 30.6 | 31.2 | 31.8 | 32.4

CC1=NNC(=O)N(N=Cc2cccnc2)C1 + CS(C)=O + CC(C)O
solubility (g/100 g solution)
Settings | 293.15 K | 298.15 K | 303.15 K | 308.15 K | 313.15 K | 318.15 K
x2 = 0.1614 | 0.482 | 0.555 | 0.623 | 0.721 | 0.847 | 0.956
x2 = 0.3392 | 0.992 | 1.11 | 1.25 | 1.39 | 1.57 | 1.77
x2 = 0.5359 | 1.42 | 1.59 | 1.78 | 2.05 | 2.32 | 2.58
x2 = 0.7549 | 1.8 | 2.01 | 2.28 | 2.59 | 2.91 | 3.28
